Results published in patent US12037302B1, “Compound for treatment of bacterial infections of different etiology in humans” (priority 2021, dated 2024).

Columns and labels:
rats [1] = assay: Acute toxicity LD50, intraperitoneal (i.p.) injection, rats; format: in vivo
Excerpt: (§1) Both mice and rats were specially selected for the testing of the toxicity of the compounds, medicine, and chemicals. […] Groups of one hundred (100) lab mice and rats of both genders were placed into glass compartments. They were regularly consuming food manufactured for these lab animals. Water consumption was always available.
(§2) Intraperitoneal testing of the compound LD50 i.e. by pharmaceutical lab needle and syringe, designed for the easy application to the lab animals intraperitoneally.
Breathing and cardiac functions were regular, function of thorax was regular and without visual changes. Discomfort symptoms noticed after the applications, disappeared after 5-6 min, diverse from rat to rat.

mice [2] = assay: Acute toxicity LD50, intraperitoneal (i.p.) injection, mice; format: in vivo
Excerpt: as §1, §2
Breathing and cardiac functions were regular, function of thorax was regular and without visual changes. Discomfort symptoms noticed after the applications, disappeared after 3-5 min, diverse from mouse to mouse.

rats [3] = assay: Acute toxicity LD50, peroral application (p.o.), rats; format: in vivo
Excerpt: as §1
(§3) The peroral application (p.o.) acute toxicity LD50 testing was done using the standard procedure: application p.o. with the special lab pipette easy to administer liquid product: orally to the lab animals.
Breathing and cardiac functions were regular, function of thorax was regular and without visual changes. Discomfort symptoms noticed after the applications, disappeared after 1-3 min, diverse from rat to rat.

Streptococcus pyogenes = assay: Comparative in vitro zone diameter test on Müler-Hinton-Agar; format: cell-based; conditions: amount used: novel compound 0.05 mL, Cephalosporin 0.1 mL, Ampicillin 0.2 mL
Excerpt: (§4) Here are the findings of the comparative examination of selected pathogens against the novel compound and the antibiotics Cephalosporin and Ampicillin:
(§5) Evaluation of the results by zone diameter: • 0 mm to 4 mm: resistant: R • 5 mm to 9 mm: moderately sensitive: MS • 10 mm to 15 mm: sensitive: S • 16 mm to 20 mm: very sensitive: VS • 21 mm and more: extremely sensitive: ES

Staphylococcus aureus = assay: as above; format: cell-based; conditions: amount used: novel compound 0.05 mL, Cephalosporin 0.1 mL, Ampicillin 0.2 mL
Excerpt: as §4, §5

Escherichia coli O157:H7 = assay: as above; format: cell-based; conditions: amount used: novel compound 0.05 mL, Cephalosporin 0.1 mL, Ampicillin 0.2 mL
Excerpt: as §4, §5

[4] = test system: Salmonella typhimurium DT104; assay: as above; format: cell-based; conditions: amount used: novel compound 0.05 mL, Cephalosporin 0.1 mL, Ampicillin 0.2 mL
Excerpt: as §4, §5

Streptococcus uberis = assay: as above; format: cell-based; conditions: amount used: novel compound 0.05 mL, Cephalosporin 0.1 mL, Ampicillin 0.2 mL
Excerpt: as §4, §5

Streptococcus pneumoniae = assay: as above; format: cell-based; conditions: amount used: novel compound 0.05 mL, Cephalosporin 0.1 mL, Ampicillin 0.2 mL
Excerpt: as §4, §5

Listeria monocytogenes = assay: as above; format: cell-based; conditions: amount used: novel compound 0.05 mL, Cephalosporin 0.1 mL, Ampicillin 0.2 mL
Excerpt: as §4, §5

mice [5] = assay: Acute toxicity LD50, peroral application (p.o.), mice; format: in vivo
Excerpt: as §1, §3
Breathing and cardiac functions were regular, function of thorax was regular and without visual changes. Discomfort symptoms were noticed after the applications, disappeared after 1-3 min, diverse from mouse to mouse.

| Compound | R (evaluation by zone diameter) (Streptococcus pyogenes) | zone diameter (Streptococcus pyogenes) [mm] | R (evaluation by zone diameter) (Staphylococcus aureus) | zone diameter (Staphylococcus aureus) [mm] | R (evaluation by zone diameter) (Escherichia coli O157:H7) | zone diameter (Escherichia coli O157:H7) [mm] | R (evaluation by zone diameter) [4] | zone diameter [4] [mm] | R (evaluation by zone diameter) (Streptococcus uberis) | zone diameter (Streptococcus uberis) [mm] | R (evaluation by zone diameter) (Streptococcus pneumoniae) | zone diameter (Streptococcus pneumoniae) [mm] | R (evaluation by zone diameter) (Listeria monocytogenes) | zone diameter (Listeria monocytogenes) [mm] | also measured |
| --- | --- | --- | --- | --- | --- | --- | --- | --- | --- | --- | --- | --- | --- | --- | --- |
| CCN(CC)CC(=O)Nc1c(C)cccc1C.Cc1cc([N+](=O)[O-])c(C(C)C)c([N+](=O)[O-])c1O [Novel Compound, 2,4-dinitro-5-isopropyl-2-methylphenoxy-N-(2,6-dimethylphenylium)-N2,N2-diethylglycinamide] | ES (21 mm and more: extremely sensitive: ES) | 29 | ES (21 mm and more: extremely sensitive: ES) | 27 | ES (21 mm and more: extremely sensitive: ES) | 24 | ES (21 mm and more: extremely sensitive: ES) | 25 | ES (21 mm and more: extremely sensitive: ES) | 32 | ES (21 mm and more: extremely sensitive: ES) | 31 | ES (21 mm and more: extremely sensitive: ES) | 33 | Intraperitoneal LD50 (rats [1]; i.p.): over 1,750 ML/kg; animals that changed their behavior and demonstrated discomfort, running, anxiety (rats [1]; i.p., 1,750 μL/kg): 29 rats out of one hundred (100); time after which discomfort symptoms disappeared (rats [1]; i.p., 1,750 μL/kg): 5 to 6 min; toxicity conclusion (rats [1]; i.p., applied doses): low toxic; lethality during the test (rats [1]; i.p., doses up to 1,750 μL/kg): No rat has passed lethally; Intraperitoneal LD50 (mice [2]; i.p.): over 1,550 μL/kg; animals that changed their behavior and demonstrated discomfort, running, anxiety (mice [2]; i.p., 1,550 μL/kg): 21 mice out of one hundred (100); time after which discomfort symptoms disappeared (mice [2]; i.p., 1,550 μL/kg): 3 to 5 min; toxicity conclusion (mice [2]; i.p., applied doses): low toxic; lethality during the test (mice [2]; i.p., doses up to 1,550 μL/kg): No mouse has ended lethally; toxicity conclusion (rats [3]; orally (p.o.), applied doses): low toxic; oral LD50 (rats [3]; p.o.): over 2,250 μL/kg; animals that changed their behavior and demonstrated light discomfort, running, anxiety (rats [3]; p.o., 2,250 μL/kg): 37 rats out of one hundred (100); time after which discomfort symptoms disappeared (rats [3]; p.o., 2,250 μL/kg): 1 to 3 min; lethality during the test (rats [3]; p.o., doses up to 2,250 μL/kg): No rat has ended lethally; toxicity conclusion (mice [5]; orally (p.o.), applied doses): low toxic; oral LD50 (mice [5]; p.o.): over 2,000 μL/kg; animals that changed their behavior and demonstrated light discomfort, running, anxiety (mice [5]; p.o., 2,000 μL/kg): 23 mice out of one hundred (100); time after which discomfort symptoms disappeared (mice [5]; p.o., 2,000 μL/kg): 1 to 3 min; lethality during the test (mice [5]; p.o., doses up to 2,000 μL/kg): No mouse has ended lethally |
| CC1(C)S[C@@H]2[C@H](NC(=O)[C@H](N)c3ccccc3)C(=O)N2[C@H]1C(=O)O [Ampicilin, Ampicillin] | R (0 mm to 4 mm: resistant: R) | 3 | R (0 mm to 4 mm: resistant: R) | 0 | MS (5 mm to 9 mm: moderately sensitive: MS) | 7 | MS (5 mm to 9 mm: moderately sensitive: MS) | 6 | R (0 mm to 4 mm: resistant: R) | 0 | R (0 mm to 4 mm: resistant: R) | 0 | MS (5 mm to 9 mm: moderately sensitive: MS) | 7 |  |
